We go through one compound from patent US6602896B1, “p38MAPK inhibitor and uses thereof” (The Board of Trustees of the University of Arkansas, priority 1999, dated 2003).

Entries after “also recorded” stand apart in the source; their conditions may differ.

One experiment deals with p42/44^MAPK. The following applies: even at higher concentrations (100 μM); cited from earlier work.
In experiment [1] the test system is p38^MAPK γ- and δ-isoforms. The conditions noted are these: cited from earlier work.
In experiment [2] the test system is LDL receptor expression. Description: Northern blotting of LDL receptor mRNA in HepG2 cells. Type of experiment: cell-based, human. The procedure:
5×10^5 cells were plated on day 0. On day 2, cells were refed with fresh medium. On day. 4, cells were either left untreated (0) or treated for the indicated times with SB202190 (2.5 μM) in medium containing 0.5% FBS. Total RNA was isolated and subjected to Northern blotting to determine amounts of LDL receptor, squalene synthase (SS) genes, and actin mRNAs. Autoradiographs were quantitated densitometrically. LDL receptor mRNA levels were normalized to actin mRNA levels. In the bottom panel, results are expressed as the fold induction by SB 202190 as compared with uninduced cells (set at 1). Values obtained are the averages of three separate experiments, with the standard deviations shown.
HepG2 cells were grown as described in FIG. 1. On day 4, medium was changed to either 10% LPDS alone or 10% LPDS supplemented with 25-hydroxycholesterol (2 μg/ml) and cholesterol (10 μg/ml), and after 2 hours, cells were treated with indicated concentrations of SB202190 for an additional 4 hours. Levels of LDL receptor and SS mRNAs were determined by Northern analysis and densitometry as described previously. RNA levels were normalized by comparison with levels of actin. Values obtained from cells cultured in the absence of sterols and SB202190 were set at 1. Values shown are the average of two different experiments.
Total RNA was subjected to Northern blot analysis, and the filter was hybridized with a ^32P-labeled LDL receptor probe. Values shown are the averages of two different experiments. […] Values obtained from the control cells grown in the absence of SB202190 or PD98059 were arbitrarily set at 1.
HepG2 cells were grown as described in FIG. 1. On day 4, cells cultured for 1 h in 0.5% FBS containing different amounts of cycloheximide (1 μg/ml, 2 μg/ml, and 5 μg/ml) were then incubated with SB202190 (2.5 μM) for an additional 4 h. LDL receptor and actin mRNA levels were analyzed by Northern blotting of total RNA. Values obtained from cells with no additions were arbitrarily set at 1. […] Results shown are representative of one experiment.
In FIG. 8A, HepG2 cells were pretreated for 30 minutes with the indicated concentration of the above inhibitors and then treated with […] SB202190 for an additional 4 hours. Total RNA was subjected to Northern blotting for measurement of LDL receptor mRNA levels.
Human hepatoma cell line HepG2 and its derivative HepG2-ΔRaf-1:ER cell line that stably expresses the ΔRaf-1:ER chimera were maintained as monolayer cultures in a humidified 5% CO2 atmosphere at 37° C. in Eagle's minimum essential medium (EMEM) (Bio Whittaker, Md.) supplemented with 10% fetal bovine serum (FBS) (Life Technologies Inc.), 2 mM L-glutamine, 20 units/ml penicillin and 20 μg/ml streptomycin sulphate.
Total RNA was isolated using TRIzol, and Northern blotting was done essentially as described earlier (43, 44). Briefly, 20 μg total cellular RNA was fractionated on 1% formaldehyde agarose gel and transferred to Zeta Probe membrane by capillary blotting. RNA blots were hybridized with LDL receptor and squalene synthase specific single-stranded M13 probes labeled with [α-^32P ]dCTP. Hybridized filters were washed and exposed to Kodak X-ray film. The relative intensities of specific bands were determined densitometrically within the linear range of the film on a model 300A laser densitometer (Molecular Dyanamics, Calif.) with Image Quant software. LDL receptor mRNA was normalized to squalene synthase (SS) (included in this study) or to α-actin (data not shown) mRNA level, and data for each point were plotted as the percentage of LDL receptor mRNA as compared to controls. […]

Experiment [3] concerns LDL receptor expression. Kind of experiment: Northern blotting of LDL receptor mRNA in HeLa cells. The following applies: SB202190 (2.5 μM) 4 h. Type of experiment: cell-based. The procedure: PD98059 was added 30 min prior to addition of SB202190. After the indicated times, total RNA was isolated and subjected to Northern blotting. […] Total RNA was isolated using TRIzol, and Northern blotting was done essentially as described earlier (43, 44). Briefly, 20 μg total cellular RNA was fractionated on 1% formaldehyde agarose gel and transferred to Zeta Probe membrane by capillary blotting. RNA blots were hybridized with LDL receptor and squalene synthase specific single-stranded M13 probes labeled with [α-^32P ]dCTP. Hybridized filters were washed and exposed to Kodak X-ray film. The relative intensities of specific bands were determined densitometrically within the linear range of the film on a model 300A laser densitometer (Molecular […], Calif.) with Image Quant software. LDL receptor mRNA was normalized to squalene synthase (SS) (included in this study) or to α-actin (data not shown) mRNA level, and data for each point were plotted as the percentage of LDL receptor mRNA as compared to controls.

The subject of experiment [4] is p38^MAPK α- and β-isoforms. The conditions noted are these: cited from earlier work.

Regarding `Oc1ccc(-c2nc(-c3ccc(F)cc3)c(-c3ccncc3)[nH]2)cc1` [SB202190, 4-(4-Fluorophenyl)-2-(4-hydroxyphenyl)-5-(4-pyridyl) 1H-imidazole], the “effect on p42/44MAPK” value in the experiment on p42/44^MAPK is reported as “without effect”. In experiment [1], the “inhibition of p38MAPK γ- and δ-isoforms” value is “insensitive”. In experiment [1] (even at higher concentrations (100 μM)), the “effect on homologues p38MAPK γ (SAPK3) and SAPK4” value is “without effect”. Also, the “LDL receptor expression in the presence of sterols” value in the experiment on LDL receptor expression [2] (HepG2, 10% LPDS with 25-hydroxycholesterol (2 μg/ml) and cholesterol (10 μg/ml), SB202190 4 hours) is “slight increase in the suppressed levels of LDL receptor”. The “most effective concentration for LDL receptor induction” value with LDL receptor expression [2] (HepG2 cells) was determined as 2.5 µM. In the experiment on LDL receptor expression [2] (HepG2 cells, SB202190 2.5 μM), the “time after which plateau of LDL receptor expression was reached” value was determined as 8 h and the “time at which a significant increase in LDL receptor expression was apparent” value amounted to 4 h. Also, the “induction of LDL receptor expression” value with LDL receptor expression [2] (HepG2 cells, SB202190 alone) is recorded as 6-8 fold. In addition, in the experiment with LDL receptor expression [2] (HepG2 cells, inhibitor alone, 0.5% FBS), the “induction of LDL receptor expression (Northern blotting)” value is listed as “induces LDL receptor expression in a time-dependent manner”. Further, the “LDL receptor expression in HeLa cells” value in the experiment with LDL receptor expression [3] is given as “caused a increase in LDL receptor expression”. Further, the “inhibition of p38MAPK α- and β-isoforms” value in experiment [4] was “selectively inhibit both p38^MAPK α- and β-isoforms; also recorded: inhibited”.
